# Measured values as given in patent US20210395689A1, “METHOD FOR PRODUCING INSULIN-PRODUCING CELLS” (KATAOKA CORPORATION, priority 2018, published 2021).
# Key:
# human fibroblasts = assay: Direct induction from human fibroblasts into insulin-producing cells, amount of insulin secreted; type: cell-based; conditions: culturing for 14 days in differentiation induction medium; 3 μM CHIR99021, 7.5 μM forskolin, 1.5 μM BRD7389, 5 μM LY294002; BI-D1870 5 μM or 10 μM; FIGS. 1 to 4
# Description: The insulin-producing cell produced by the present invention process can be detected, identified, and isolated using, for example, a morphological change of a cell, a characteristic property of an insulin-producing cell, or a specific marker (e.g., an anti-insulin antibody). Moreover, the secretory capacity of the obtained insulin-producing cell can also be evaluated by quantifying the amount of secreted insulin using sandwich ELISA.
# The human fibroblasts used as the material were purchased from DS Pharma Biomedical Co., Ltd. The fibroblasts are derived from human skin.
# Human fibroblasts were seeded in 35-mm dishes coated with gelatin (Cat #: 190-15805, manufactured by Wako Pure Chemical Industries, Ltd.) at 5×10^4 cells/dish, and cultured in DMEM medium (manufactured by Gibco) supplemented with 10% fetal bovine serum (FBS), 100 U/mL penicillin, and 100 μg/mL streptomycin until confluent under conditions of 37° C. and 5% CO2. Note that DMEM refers to Dulbecco's Modified Eagle's Medium.
# The medium of dishes of the human fibroblasts described above was replaced with the differentiation induction medium described below. […]
# pancreatic α-cells = conditions: reported in Non-Patent Document 7; cited from earlier work
compound,measurement,setting,value
O=C1c2ccccc2-c2c(NCCc3ccccc3)c(=O)[nH]c3cccc1c23 [BRD7389],insulin secretion by insulin-producing cells directly differentiated from human fibroblasts,human fibroblasts,a considerable amount of insulin secretion was observed
same,expression of insulin genes in pancreatic α-cells,pancreatic α-cells,capacity of activating the expression of insulin genes
